Here are results for 4 molecules from patent publication US20020128185A1, “Pharmaceutical compounds” (priority 1998, published 2002).

“Also recorded” adds a separate entry of the source.

A word on the melting point: it is the temperature of the solid-liquid transition. The IC50 is the concentration at which inhibition is half-maximal. The low end stands for greater potency, the high end for weaker potency.

Series [1] relates to A-10 rat aortic smooth muscle cells. As to the kind of experiment: Immunofluorescence assays of the cytoskeleton in A-10 cells. It counts as cell-based. As to conditions: for Microtubule repolymerization after removal of drug: 100 nM for 24 hr. How it is done: A-10 cells are grown to near-confluency on glass coverslips in BME/10% FBS. Compounds in PBS are added to the indicated final concentrations and cells are incubated for an additional 24 hours. For the staining of microtubules and intermediate filaments, the cells are fixed with cold methanol and incubated with PBS containing 10% calf serum to block nonspecific binding sites. Cells are then incubated at 37° C for 60 min. with either monoclonal anti-S-tubulin or with monoclonal anti-vimentin at dilutions recommended by the manufacturer. Bound primary antibodies are subsequently visualized by a 45-minute incubation with fluorescein-conjugated rabbit antimouse IgG. The coverslips are mounted on microscope slides and the fluorescence patterns are examined and photographed using a Zeiss Photomicroscope Ill equipped with epifluorescence optics for fluorescein. […] PBS containing 100 nM TRITC-phalloidin is then added and the mixture is allowed to incubate for 45 min. at 37° C. The cells are washed rapidly with PBS before the coverslips are mounted and immediately photographed as described above.
After 24 hours, microtubules and vimentin intermediate filaments are visualized by indirect immunofluorescence and microfilaments are stained using TRITC-phalloidin. The morphological effects of each drug is examined.
After 24 hours, microtubule organization is examined by immunofluorescence as described above.
The cells are then washed and incubated in drug-free medium for periods of 1 hour or 24 hours. […] Cells are visualized for microtubule state after treatment with a cryptophycin compound of this invention at either 1 hour or 24 hours after removal of the cryptophycin compounds.

In series [2] the test system is SKVLB1 cells (vinblastine-resistant, P-glycoprotein-overexpressing sub-line of SKOV3). As to the kind of experiment: Inhibition of growth of SKVLB1 cells. As to conditions: Homo sapiens. Format: cell-based. How it is done:
The Jurkat T cell leukemia line and A-10 rat aortic smooth muscle cells are obtained from the American Type Culture Collection and are cultured in BME containing 10% FBS and 50 μg/mL gentamycin sulfate. […] Both cell lines are maintained in BME containing 10% FBS and 50 μg/mL gentamycin sulfate.
Cell proliferation assays are performed as described by Skehan et al. For Jurkat cells, cultures are treated with the indicated drugs as described in Skehan and total cell numbers are determined by counting the cells in a hemacytometer. The percentage of cells in mitosis are determined by staining with 0.4% Giemsa in PBS followed by rapid washes with PBS. At least 1000 cells per treatment are scored for the presence of mitotic figures and the mitotic index is calculated as the ration of the cells with mitotic figures to the total number of cells counted.
SKVLB1 cells are resistant to natural product anticancer drugs because of their over expression of P-glycoprotein.

`COc1ccc(C[C@H]2NC(=O)/C=C/C[C@@H]([C@H](C)/C=C/c3ccccc3)OC(=O)[C@H](CC(C)C)NC(=O)CC(CC(C)C)NC2=O)cc1Cl` (stereo partly shown) came in with a melting point of 258 to 260 °C.

In the case of `C=C1[C@@H](C)[C@H]2[C@H](Cc3ccccc3)NC(=O)[C@]23OC(=O)/C=C/[C@H](O)CCC[C@@H](C)C/C=C/[C@H]3[C@@H]1O` [Cytochalasin B, cytochalasin B], the “Effect on distribution of microtubules and intermediate filaments” value in series [1] (2 μM cytochalasin B, 24 hours) was “did not affect the distribution of either microtubules or intermediate filaments”. In addition, the Effect on microfilaments entry in series [1] (2 μM cytochalasin B, 24 hours, TRITC-phalloidin staining) was “complete depolymerization of microfilaments”.

In the case of `CC(=O)O[C@H]1C(=O)[C@@]2(C)[C@H]([C@H](OC(=O)c3ccccc3)[C@]3(O)C[C@H](OC(=O)[C@H](O)[C@@H](NC(=O)c4ccccc4)c4ccccc4)C(C)=C1C3(C)C)[C@]1(OC(C)=O)CO[C@@H]1C[C@@H]2O` [Taxol, taxol], the “Microtubule organization in taxol-treated cells” value in series [1] (10 μM taxol, compared with control cells) was “extensively bundled”. Also, in series [1] (3 hours 10 μM taxol before 100 nM vinblastine, 24 hours), the “Effect of taxol pretreatment on vinblastine-induced microtubule depolymerization” value is reported as “prevented microtubule depolymerization in response to vinblastine”. Also, the IC50 in series [2] was 8 µM.

`CC[C@]1(O)C[C@@H]2CN(CCc3c([nH]c4ccccc34)[C@@](C(=O)OC)(c3cc4c(cc3OC)N(C)[C@H]3[C@@](O)(C(=O)OC)[C@H](OC(C)=O)[C@]5(CC)C=CCN6CC[C@]43[C@@H]65)C2)C1` [Vinblastine, vinblastine]: the “Microtubule repolymerization after removal of drug” value in series [1] (then 1 hour in drug-free medium) is on record as “significant levels of microtubules after 1 hour”; in series [1] (then 24 hours in drug-free medium), “complete morphological recovery by 24 hour”. For the same molecule, the Effect on microtubules entry in series [1] (100 nM vinblastine, 24 hours, not pretreated) is listed as “complete depolymerization of microtubules; also recorded: complete microtubule depolymerization”. Besides, the IC50 in series [2] was 4.2 µM.
